In PubChem BioAssay (NCI):
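Abbreviation: GI50, concentration required for 50% inhibition of growth. TGI marks complete inhibition of growth.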

Key:
Test in all cases: NCI anticancer screen, dose series, 384-well format
RXF 393 renal = test system: RXF 393 renal
UACC-257 melanoma = test system: UACC-257 melanoma
SK-MEL-5 melanoma = test system: SK-MEL-5 melanoma
OVCAR-8 ovarian = test system: OVCAR-8 ovarian
IGROV1 ovarian = test system: IGROV1 ovarian
BT-549 breast = test system: BT-549 breast
T-47D breast = test system: T-47D breast
HCT-15 colon = test system: HCT-15 colon
HT29 colon = test system: HT29 colon
DU-145 prostate = test system: DU-145 prostate
MDA-MB-435 melanoma = test system: MDA-MB-435 melanoma
TK-10 renal = test system: TK-10 renal
SR leukemia = test system: SR leukemia
HS 578T breast = test system: HS 578T breast
CAKI-1 renal = test system: CAKI-1 renal
COLO 205 colon = test system: COLO 205 colon
RPMI-8226 leukemia = test system: RPMI-8226 leukemia
SF-539 CNS = test system: SF-539 CNS
SK-MEL-2 melanoma = test system: SK-MEL-2 melanoma
OVCAR-5 ovarian = test system: OVCAR-5 ovarian
NCI-H23 lung = test system: NCI-H23 lung
NCI-H322M lung = test system: NCI-H322M lung
SK-MEL-28 melanoma = test system: SK-MEL-28 melanoma
CCRF-CEM leukemia = test system: CCRF-CEM leukemia
SF-295 CNS = test system: SF-295 CNS
HCT-116 colon = test system: HCT-116 colon
NCI-H460 NSCLC = test system: NCI-H460 NSCLC
HL-60(TB) leukemia = test system: HL-60(TB) leukemia
A549 NSCLC = test system: A549 NSCLC
SN12C renal = test system: SN12C renal
EKVX NSCLC = test system: EKVX NSCLC
A498 renal = test system: A498 renal
SNB-75 CNS = test system: SNB-75 CNS
SW-620 colon = test system: SW-620 colon
ACHN renal = test system: ACHN renal
K-562 leukemia = test system: K-562 leukemia
MDA-MB-231 breast = test system: MDA-MB-231 breast
NCI/ADR-RES ovarian = test system: NCI/ADR-RES ovarian
NCI-H522 lung = test system: NCI-H522 lung
MDA-MB-468 breast = test system: MDA-MB-468 breast
MOLT-4 leukemia = test system: MOLT-4 leukemia
UACC-62 melanoma = test system: UACC-62 melanoma
786-0 renal = test system: 786-0 renal
U251 glioblastoma = test system: U251 glioblastoma
M14 melanoma = test system: M14 melanoma
HOP-62 NSCLC = test system: HOP-62 NSCLC
PC-3 prostate = test system: PC-3 prostate

`CNC(=O)c1cc(Oc2ccc(NC(=O)Nc3ccc(Cl)c(C(F)(F)F)c3)cc2)ccn1` gave a GI50 (RXF 393 renal) of 2200 nM, a TGI (RXF 393 renal) of 4430 nM and a GI50 (UACC-257 melanoma) of 2320 nM. It also gave a TGI (UACC-257 melanoma) of 4620 nM, a GI50 (SK-MEL-5 melanoma) of 842 nM and a TGI (SK-MEL-5 melanoma) of 2440 nM. It also gave a GI50 (OVCAR-8 ovarian) of 2090 nM, a TGI (OVCAR-8 ovarian) of 4240 nM and a GI50 (IGROV1 ovarian) of 2460 nM. The TGI (IGROV1 ovarian) was 5910 nM, the GI50 (BT-549 breast) was 2290 nM and the TGI (BT-549 breast) was 4040 nM. The GI50 (T-47D breast) was 1940 nM, the TGI (T-47D breast) was 5950 nM and the GI50 (HCT-15 colon) was 1920 nM. The TGI (HCT-15 colon) was 4030 nM, the GI50 (HT29 colon) was 2350 nM and the TGI (HT29 colon) was 5960 nM. It also gave a GI50 (DU-145 prostate) of 2690 nM, a TGI (DU-145 prostate) of 6570 nM and a GI50 (MDA-MB-435 melanoma) of 2570 nM. It also gave a TGI (MDA-MB-435 melanoma) of 4980 nM, a GI50 (TK-10 renal) of 5090 nM and a TGI (TK-10 renal) of 17700 nM. It also gave a GI50 (SR leukemia) of 2100 nM, a TGI (SR leukemia) of 3550 nM and a GI50 (HS 578T breast) of 1780 nM. The TGI (HS 578T breast) was 3690 nM, the GI50 (CAKI-1 renal) was 2190 nM and the TGI (CAKI-1 renal) was 4740 nM. It also gave a GI50 (COLO 205 colon) of 2190 nM, a TGI (COLO 205 colon) of 4660 nM and a GI50 (RPMI-8226 leukemia) of 1480 nM. It also gave a TGI (RPMI-8226 leukemia) of 2820 nM, a GI50 (SF-539 CNS) of 1690 nM and a TGI (SF-539 CNS) of 3540 nM. For the same compound, the GI50 (SK-MEL-2 melanoma) was 2050 nM, the TGI (SK-MEL-2 melanoma) was 3490 nM and the GI50 (OVCAR-5 ovarian) was 2690 nM. The TGI (OVCAR-5 ovarian) was 6590 nM, the GI50 (NCI-H23 lung) was 1560 nM and the TGI (NCI-H23 lung) was 3650 nM. It also gave a GI50 (NCI-H322M lung) of 2610 nM, a TGI (NCI-H322M lung) of 5160 nM and a GI50 (SK-MEL-28 melanoma) of 2150 nM. For the same compound, the TGI (SK-MEL-28 melanoma) was 4340 nM, the GI50 (CCRF-CEM leukemia) was 1590 nM and the TGI (CCRF-CEM leukemia) was 2950 nM. It also gave a GI50 (SF-295 CNS) of 2070 nM, a TGI (SF-295 CNS) of 4200 nM and a GI50 (HCT-116 colon) of 1650 nM. It also gave a TGI (HCT-116 colon) of 4140 nM, a GI50 (NCI-H460 NSCLC) of 2100 nM and a TGI (NCI-H460 NSCLC) of 4250 nM. The GI50 (HL-60(TB) leukemia) was 892 nM, the TGI (HL-60(TB) leukemia) was 2040 nM and the GI50 (A549 NSCLC) was 2950 nM. For the same compound, the TGI (A549 NSCLC) was 8890 nM, the GI50 (SN12C renal) was 2470 nM and the TGI (SN12C renal) was 5660 nM. For the same compound, the GI50 (EKVX NSCLC) was 2900 nM, the TGI (EKVX NSCLC) was 6800 nM and the GI50 (A498 renal) was 2370 nM. For the same compound, the TGI (A498 renal) was 4740 nM, the GI50 (SNB-75 CNS) was 3210 nM and the TGI (SNB-75 CNS) was 5920 nM. For the same compound, the GI50 (SW-620 colon) was 2170 nM, the TGI (SW-620 colon) was 4540 nM and the GI50 (ACHN renal) was 2710 nM. It also gave a TGI (ACHN renal) of 6370 nM, a GI50 (K-562 leukemia) of 1260 nM and a TGI (K-562 leukemia) of 2550 nM. The GI50 (MDA-MB-231 breast) was 1820 nM, the TGI (MDA-MB-231 breast) was 3470 nM and the GI50 (NCI/ADR-RES ovarian) was 2120 nM. It also gave a TGI (NCI/ADR-RES ovarian) of 4390 nM, a GI50 (NCI-H522 lung) of 2040 nM and a TGI (NCI-H522 lung) of 4710 nM. It also gave a GI50 (MDA-MB-468 breast) of 1500 nM, a TGI (MDA-MB-468 breast) of 3350 nM and a GI50 (MOLT-4 leukemia) of 1660 nM. For the same compound, the TGI (MOLT-4 leukemia) was 3060 nM, the GI50 (UACC-62 melanoma) was 2080 nM and the TGI (UACC-62 melanoma) was 4060 nM. It also gave a GI50 ([…]-0 renal) of 1890 nM, a TGI (786-0 renal) of 3700 nM and a GI50 (U251 glioblastoma) of 2000 nM. For the same compound, the TGI (U251 glioblastoma) was 3740 nM, the GI50 (M14 melanoma) was 2480 nM and the TGI (M14 melanoma) was 5220 nM. It also gave a GI50 (HOP-62 NSCLC) of 1840 nM, a TGI (HOP-62 NSCLC) of 3420 nM and a GI50 (PC-3 prostate) of 2710 nM. For the same compound, the TGI (PC-3 prostate) was 5910 nM.
